US8440420B2, “Assessment of cardiac health and thrombotic risk in a patient” (priority 2005, dated 2013)
Read-outs that look alike come from different tables or passages of the source. Where a SMILES comes first, the peptide text is derived from it. Bridges are numbered along the chain shown (N, C = ends). [ ]: non-standard residue; d: D form. hArg = N=C(N)NCCCC[C@H](N)C(=O)O; Mpa = O=C(O)CCS

Experiments:
[1] = tested on: platelets (arachidonic acid-induced aggregation); test: Aspirin resistance by arachidonic acid-induced aggregation, LTA (Example 1); format: in vivo; conditions: 1.0 mM arachidonic acid; 1/70 patients; aspirin 81-325 mg qd
Text: J Am Coll Cardiol 1998 89:783).

[2] = tested on: platelets (arachidonic acid-induced aggregation); conditions: Gum et al. study; ADP and 1.6 mM arachidonic acid; cited from earlier work
[3] = tested on: platelets (ADP-induced aggregation); test: ADP-induced platelet aggregation by light transmittance aggregometry after coronary stenting (Example 2); format: in vivo, patients
Experimental: Patients were randomly assigned to one of four treatment regimens by a computer generated assignment that was chosen from a sealed envelope by the study personnel: […] […] Unfractionated heparin was administered according to the ESPRIT dosing regimen (60 U/kg) as a bolus to all patients in the catheterization laboratory immediately prior to stenting. […] The blood-citrate tubes were centrifuged at 120 g for 5 minutes to recover platelet rich plasma (PRP) and further centrifuged at 850 g for 10 minutes to recover platelet poor plasma (PPP). The platelet count was determined in the PRP sample and adjusted to 3.0×10^8/ml with homologous platelet poor plasma. The PRP and PPP were stored at room temperature to be used within two hours. Platelet aggregation was assessed as described previously. […] Aggregation was expressed as the maximum percent change in light transmittance from baseline, using PPP as a reference.

[4] = tested on: myocardial necrosis markers (troponin I, CKMB, myoglobin); test: Myocardial necrosis markers and infarction after elective stenting (Example 2); format: in vivo, patients; conditions: for large infarcts: CK-MB>5×ULN in at least 2 samples; for criteria met for a myocardial infarction: CK-MB>3× ULN in at least 2 samples
Experimental: Patients were randomly assigned to one of four treatment regimens by a computer generated assignment that was chosen from a sealed envelope by the study personnel: […] […] Unfractionated heparin was administered according to the ESPRIT dosing regimen (60 U/kg) as a bolus to all patients in the catheterization laboratory immediately prior to stenting. Cardiac markers were measured at the same times as the platelet assays. The peak levels of troponin I, creatinine kinase MB (CKMB), and myoglobin were determined using the Triage® Cardiac Panel with a Triage® Meter (Biosite Inc., San Diego, Calif.). This method is based on a fluorescence immunoassay for the quantitative determination of these cardiac markers.

[5] = tested on: platelets (ADP-induced aggregation); conditions: cited from earlier work
p-selectin = conditions: stimulated; 18-24 hours post-stenting; 300 mg clopidogrel alone
Experimental: The surface expression of platelet receptors was determined by whole blood flow cytometry using three-color analysis method (Immunocytometry Systems, Cytometry Source Book, Becton Dickinson) with the following monoclonal antibodies: FITCconjugated PAC-1. (recognizes activated GP IIb/IIIa receptors), R-Phycoerythrin (R-PE)-conjugated CD41a (recognizes total GP IIb/IIIa receptors), and CY-Chrome™ conjugated CD62P (recognizes p-selectin). All three antibodies were purchased from BD Biosciences, San Diego, Calif. The blood-citrate mixture was stimulated with 5 μM ADP for 2 minutes. Saturating concentrations of respective antibodies were then added and the tubes were incubated at room temperature for 20 minutes in the dark. […] The labeled samples were analyzed by a Becton Dickinson FACScan flow cytometer set up to measure fluorescence light scatter. The instrument was calibrated with fluorescence beads for the three-color flow cytometer setup (CaliBRITE™3, BD Biosciences). […] The data were collected in list mode and then analyzed using CELL Quest Software (BD BioSciences). P-selectin was expressed as percent positive cells (i.e. the ratio of CD62P (CY-Chrome™) verses CD41a (R-PE) positive cells) as previously described. Activated GP IIb/IIIa was expressed as log mean fluorescence intensity.

[6] = tested on: platelets (ADP-induced aggregation); conditions: resistance = >75th percentile of group without SAT, 75 mg maintenance dose
Text: Cases of stent thrombosis (n=30) were identified by searching the medical records of patients who underwent coronary stenting in the last 1.5 years at the Sinai Hospital of Baltimore and Union Memorial Hospital, Baltimore, Md. […] Stent thrombosis was defined by the sudden onset of coronary artery occlusion in a stented vessel resulting in hospitalization and judged by the treating interventionalist as due to thrombosis. Platelet reactivity in patients with stent thrombosis (SAT) was compared to a group of patients without SAT. In patients without SAT, platelet studies were performed 5-14 days post-procedure and these patients were enrolled consecutively (n=100). […]
Platelet aggregation was determined by conventional light transmittance aggregometry in response to 5 and 20 μM ADP (adenosine diphosphate); and 1.0 mM arachidonic acid using standard methods as previously described. […] The platelet count was determined in the PRPR sample and adjusted to 2-3×10^8/ml with homologous PPP. Platelets in PRP were stimulated with a final concentration of 5 and 20 μM ADP (Chronolog, Haverton, Pa.), and percent aggregation was assessed as previously described using a Chronolog Lumi aggregometer (Model 490A) with the Aggro-Link software package (Gurbel et al. J Am Coll Cardiol 1998 89:783). […]

[7] = tested on: activated GP IIb/IIIa receptors; test: Whole blood flow cytometry, stimulated active GP IIb/IIIa expression (Example 2); format: in vivo, patients; conditions: 18-24 hours post-stenting, 5 μM ADP stimulated
Experimental: (recognizes activated GP IIb/IIIa receptors), R-Phycoerythrin (R-PE)-conjugated CD41a (recognizes total GP IIb/IIIa receptors), and CY-Chrome™ conjugated CD62P (recognizes p-selectin). […] The blood-citrate mixture was stimulated with 5 μM ADP for 2 minutes.
The definition of an infarct was CK-MB>3× upper limits normal (ULN) in at least 2 samples and a large infarct was defined as CK-MB>5×ULN in at least 2 samples.10,13 Bleeding was quantified according to the TIMI criteria.16 In brief, major bleeding was defined as clinically overt bleeding accompanied by a fall in hemoglobin of […] or a fall in hematocrit of 9 to <15%.

[8] = Group A, 300 mg clopidogrel; hematoma
Experimental: Relative platelet inhibition was defined for purposes of this study as follows: (baseline aggregation minus posttreatment aggregation)/baseline aggregation×100%.14 Mean platelet reactivity was calculated as the average platelet aggregation recorded at 3, 8 and 18-24 hours poststenting. […] The definition of an infarct was CK-MB>3× upper limits normal (ULN) in at least 2 samples and a large infarct was defined as CK-MB>5×ULN in at least 2 samples.10,13 Bleeding was quantified according to the TIMI criteria.16 In brief, major bleeding was defined as clinically overt bleeding accompanied by a fall in hemoglobin of 3.0-5.0 g/dl or a fall in hematocrit of 9 to <15%. Major bleeding occurred when the hemoglobin decreased >5 g/dl or the hematocrit ≧15%.

**Q.** Which “patients meeting the criteria for aspirin resistance” value [1] does the source give for CC(=O)Oc1ccccc1C(=O)O [aspirin] here?
**A.** The value was 1.5%.

**Q.** And the “patients meeting the criteria for aspirin resistance” value [2]?
**A.** The value was 5.5%.

**Q.** Which mean platelet reactivity ([3]; 5 μM ADP, average of 3, 8 and 18-24 hours post-stenting, eptifibatide use) does the source give for N=C(N)NCCCC[C@@H]1NC(=O)CCSSC[C@@H](C(N)=O)NC(=O)[C@@H]2CCCN2C(=O)[C@H](Cc2c[nH]c3ccccc23)NC(=O)[C@H](CC(=O)O)NC(=O)CNC1=O [eptifibatide] ([Mpa][hArg]GDWPC-NH2; disulfide 1-7) here?
**A.** The mean platelet reactivity was “lowest mean platelet reactivity”.

**Q.** What about the large infarcts ([4]; either group that received eptifibatide (Groups C, D)) of the same molecule?
**A.** Its large infarcts is “no large infarcts”.

**Q.** And the “CKMB release (>1-3×ULN), overall” value ([4]; groups treated with eptifibatide vs clopidogrel alone)?
**A.** Its value is “lowest”.

**Q.** What about the “inhibition (of aggregation)” value ([5]; other studies) of the same molecule?
**A.** Its value is greater than 80%.

**Q.** Which “time of peak inhibitory effect” value ([3]; 5 μM ADP, 300 mg clopidogrel loading dose) does the source give for COC(=O)[C@H](c1ccccc1Cl)N1CCc2sccc2C1 [clopidogrel] here?
**A.** The value was 18 to 24 h.

**Q.** And the “time of peak inhibitory effect” value ([3]; 5 μM ADP, 600 mg clopidogrel loading dose)?
**A.** Its value is 8 h.

**Q.** And the “platelet inhibition, 600 mg vs 300 mg loading dose” value ([3]; 5 μM ADP, 600 mg loading dose, no eptifibatide, first 24 hours after stenting)?
**A.** Its value is “greater platelet inhibition”.

**Q.** And the “mean platelet reactivity vs 600 mg clopidogrel alone” value ([3]; 5 μM ADP, average of 3, 8 and 18-24 hours post-stenting, 300 mg clopidogrel alone)?
**A.** The value was “higher mean platelet reactivity”.

**Q.** What about the “time of peak inhibitory effect” value ([3]; 20 μM ADP, 300 mg clopidogrel loading dose) of the same molecule?
**A.** The value was 8 h.

**Q.** What about the “time of peak inhibitory effect” value ([3]; 20 μM ADP, 600 mg clopidogrel loading dose) of the same molecule?
**A.** The value was 8 h.

**Q.** And the “ST-elevation myocardial infarction in-hospital following a subacute thrombosis” value ([4]; Group A, 300 mg clopidogrel)?
**A.** The value was “one”.

**Q.** And the “criteria met for a myocardial infarction” value ([4]; Group A, 300 mg clopidogrel)?
**A.** The value was 3 patients.

**Q.** What about the large infarcts ([4]; Group A, 300 mg clopidogrel) of the same molecule?
**A.** The large infarcts was 2.

**Q.** What about the “criteria met for a myocardial infarction” value ([4]; Group B, 600 mg clopidogrel) of the same molecule?
**A.** Its value is 1 patients.

**Q.** What about the large infarcts ([4]; Group B, 600 mg clopidogrel) of the same molecule?
**A.** The large infarcts was 1.

**Q.** What about the “inhibition of baseline aggregation” value ([5]; 300 mg loading dose, 5 and 20 μM ADP, 24 hours after administration) of the same molecule?
**A.** Its value is less than 40%.

**Q.** What about the “effect in p-selectin expression” value (p-selectin) of the same molecule?
**A.** The value was “least effect”.

**Q.** And the “estimated incidence of clopidogrel resistance” value ([6]; 5 μM ADP-induced aggregation)?
**A.** Its value is 65%.

**Q.** What about the “estimated incidence of clopidogrel resistance” value ([6]; 20 μM ADP-induced aggregation) of the same molecule?
**A.** The value was 60%.

**Q.** What about the “inhibition of stimulated expression of active GP IIb/IIIa” value ([7]; 300 mg clopidogrel loading dose (Groups A, C)) of the same molecule?
**A.** The value was 50±20%.

**Q.** And the “inhibition of stimulated expression of active GP IIb/IIIa” value ([7]; 600 mg clopidogrel loading dose (Groups B, D))?
**A.** The value was 63±7%.

**Q.** And the minor bleeding [8]?
**A.** The minor bleeding was “one”.
